Laboratory results as given in US12678440B2, “Compositions and methods for treating misfolded protein ocular disorders” (CASE WESTERN RESERVE UNIVERSITY, priority 2020, dated 2026).

Legend:
P23H rhodopsin = assay: Immunoblot of rhodopsin, MTX plus BafA1 or MG-132, NIH3T3 (RHO^P23H/GFP) cells; assay type: cell-based; conditions: 10 μM MTX + 100 nM BafA1, 24 h
Description: (§1) Cells were seeded in 6-well plates at a density of 5×10^5 cells/well and cultured at 37° C. with 5% CO2 for 17 h. The medium was replaced with a fresh medium containing a corresponding concentration of compounds. After treatment for 24 h, cells collected and lysed in 150 μL PBS containing 0.1% SDS and complete protease inhibitor cocktail with 12 s of sonication on ice. Retina samples were lysed in 300 μL per retina of PBS containing 0.1% SDS and complete protease inhibitor cocktail under 24 s of sonication on ice. Protein concentrations were determined by measurements of OD280 nm using a Nanodrop spectrometer. To immunoblot rhodopsin, one hundred μg of total protein for NIH3T3 (RHO^P23H/GFP) cells, or twenty μg of total protein for NIH3T3 (RHO^WT/GFP) cells was loaded per well onto an SDS-PAGE gel. To detect other proteins, fifty μg of total protein was loaded per well. After separation by electrophoresis in 10% and 16% SDS-PAGE gels, proteins were transferred to a nitrocellulose membrane using a wet membrane electrotransfer cassette followed by blocking with 5% bovine serum albumin in PBS containing 0.05% Tween 20 for 1 h. The membranes were incubated with primary antibodies at 4° C. overnight following with appropriate secondary antibodies for 1 h at room temperature. […]

[1] = system: chymotrypsin-like proteasome activity; assay: Proteasome activity assay (Proteasome-Glo); assay type: cell-based; conditions: NIH3T3 (RHO^P23H/GFP) and NIH3T3 (RHO^WT/GFP) cells; 0.0195 to 10 μM, 24 h
Description: NIH3T3 (RHO^P23H/GFP), NIH3T3 (RHO^WT/GFP) and NIH3T3 cells were seeded in a white-wall clear-bottom 384-well plate at 2500 cells/well in 20 μL of complete mediu. After 3 h of incubation, five μL/well of complete medium containing MTX was added to cells to treat cells with MTX at final concentrations from 0.0195 to 10 μM for 24 h. The cells treated with a complete medium containing 0.1% DMSO were used as the 100% control, and those treated with 5 μM MG-132 for 8 h were used as the 0% control. For endpoint proteasome activity measurement, each well was added with 25 μL of Proteasome-Glo™ Reagent containing the Suc-LLVY-Glo™ substrate (Promega, G8660, Madison, WI USA). The 384-well plate was shaken for 2 min to mix the solutions followed by a 24-min incubation at room temperature. Luminescence of each well was detected by a SpectraMax 13× microplate reader (Molecular Devices). The chymotrypsin-like proteasome activity was normalized by the 100% and 0% controls, respectively.

[2] = system: SQSTM1/p62 and LC3-II in retinae of Rho^P23H/+ knock-in mice; assay: Autophagy flux in retinae after intravitreal injection (immunoblots of SQSTM1/p62 and LC3); assay type: in vivo, mouse; conditions: 25 pmol IVI at PND 15, 48 h, vs PBS
Description: as §1

[3] = system: P23H rhodopsin in Rho^P23H/P23H mice; assay: Retinal immunoblotting of P23H rhodopsin after IVI in Rho^P23H/P23H mice; assay type: in vivo, mouse; conditions: IVI 25 pmol at PND 15; 24, 48 and 72 h; vs PBS; data not shown
Description: as §1

rabbits = conditions: 1.76 μmol MTX (about 1 mM in vitreous); cited from earlier work

SMILES: CN(Cc1cnc2nc(N)nc(N)c2n1)c1ccc(C(=O)N[C@@H](CCC(=O)O)C(=O)O)cc1 [CL-009, N-[4-[[(2,4-diamino-6-pteridinyl)methyl]methylamino]benzoyl]-L-glutamic acid]
- MTX induced P23H rhodopsin clearance under BafA1 co-treatment (immunoblot) (P23H rhodopsin): abolished
- chymotrypsin-like proteasome activity [1]: did not affect
- LC3-II level in retinae [2]: increase
- SQSTM1/p62 level in retinae [2]: decrease
- P23H rhodopsin level by retinal immunoblotting [3]: did not see consistently and statistically significant difference
- retinal damage after intravitreal injection (rabbits): Retinal damages were observed
